Among the data in PMC7967212, “Vitamin D Compounds PRI-2191 and PRI-2205 Enhance Anastrozole Activity in Human Breast Cancer Models” (International Journal of Molecular Sciences, 2021) are IC50 values, retold here.

Structures are written as SMILES.

What is called IC50 is the concentration at which inhibition is half-maximal.

For this assay, the target named is T1, aromatase (CYP19) (Homo sapiens, UniProt P11511).
T1 construct: gene CYP19A1
T1 sequence (P11511 1-503): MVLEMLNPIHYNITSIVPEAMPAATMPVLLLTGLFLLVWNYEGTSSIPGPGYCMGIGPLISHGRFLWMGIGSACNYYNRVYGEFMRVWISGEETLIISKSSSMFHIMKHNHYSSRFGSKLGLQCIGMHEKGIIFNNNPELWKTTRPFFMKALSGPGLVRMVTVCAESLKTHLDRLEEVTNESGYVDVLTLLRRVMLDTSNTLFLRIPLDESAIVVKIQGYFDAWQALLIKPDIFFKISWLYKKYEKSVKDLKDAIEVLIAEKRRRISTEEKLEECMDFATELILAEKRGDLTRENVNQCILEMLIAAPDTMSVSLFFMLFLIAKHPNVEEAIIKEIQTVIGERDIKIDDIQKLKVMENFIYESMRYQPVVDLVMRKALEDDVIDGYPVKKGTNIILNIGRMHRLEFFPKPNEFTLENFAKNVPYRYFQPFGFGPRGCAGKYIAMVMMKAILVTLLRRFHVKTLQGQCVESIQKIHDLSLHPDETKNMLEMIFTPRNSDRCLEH
Put plainly: CYP19/MFC High Throughput Inhibitor Screening Kit (Corning No. […]), fluorogenic enzyme inhibition. In kind it is biochemical.

As for `C=C1/C(=C\C=C2/CCC[C@]3(C)[C@@H]([C@H](C)CC[C@@H](O)C(C)C)CC[C@@H]23)C[C@@H](O)C[C@@H]1O` [PRI-2191], inhibition was half-maximal at 152 ± 30.5 nM (IC50).
